In ChEMBL document CHEMBL1201862, “PubChem BioAssay data set” (2004):
One block for each compound: values may come before it. Calls of active or inactive are those of the source.

Assays:
[1] = target: G-protein coupled receptor 55 (Homo sapiens, UniProt Q9Y2T6); test: inhibition of LPI-stimulated GPR55 beta-arrestin translocation – imaging, U2OS, beta-arrestin-GFP, LPI agonist, primary screen (AID 2013); format: functional;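 note: antagonist potency measured as reduced agonist-driven arrestin aggregation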
Chain of G-protein coupled receptor 55 (Q9Y2T6 whole entry): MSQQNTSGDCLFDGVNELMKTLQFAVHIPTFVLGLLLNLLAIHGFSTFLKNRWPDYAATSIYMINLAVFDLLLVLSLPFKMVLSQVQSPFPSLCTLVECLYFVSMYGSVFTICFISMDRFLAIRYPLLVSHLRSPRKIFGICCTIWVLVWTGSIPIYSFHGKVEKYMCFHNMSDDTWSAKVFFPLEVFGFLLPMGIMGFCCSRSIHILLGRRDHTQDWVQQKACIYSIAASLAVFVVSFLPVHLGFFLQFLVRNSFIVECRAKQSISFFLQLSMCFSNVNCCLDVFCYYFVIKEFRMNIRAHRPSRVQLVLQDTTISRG

BJ [2] = test: BJ-TERT fibroblast viability loss – cell-based, RAS-independent, luminescence, dose response (AID 1933); format: functional; conditions: Homo sapiens
[3] = target: T1, Heat shock factor protein 1 (Mus musculus, UniProt P38532); test: decrease of HSF1-responsive luciferase luminescence – cell-based, NIH3T3, dose retest, confirmation (AID 2382); format: functional;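 note: NIH3T3 fibroblasts with HSF1-driven luciferase reporter stressed by proteasome inhibitor MG132; luminescence from HSF1-driven luciferase expression after 8 hours of MG132 stress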
T1 sequence (P38532 whole entry): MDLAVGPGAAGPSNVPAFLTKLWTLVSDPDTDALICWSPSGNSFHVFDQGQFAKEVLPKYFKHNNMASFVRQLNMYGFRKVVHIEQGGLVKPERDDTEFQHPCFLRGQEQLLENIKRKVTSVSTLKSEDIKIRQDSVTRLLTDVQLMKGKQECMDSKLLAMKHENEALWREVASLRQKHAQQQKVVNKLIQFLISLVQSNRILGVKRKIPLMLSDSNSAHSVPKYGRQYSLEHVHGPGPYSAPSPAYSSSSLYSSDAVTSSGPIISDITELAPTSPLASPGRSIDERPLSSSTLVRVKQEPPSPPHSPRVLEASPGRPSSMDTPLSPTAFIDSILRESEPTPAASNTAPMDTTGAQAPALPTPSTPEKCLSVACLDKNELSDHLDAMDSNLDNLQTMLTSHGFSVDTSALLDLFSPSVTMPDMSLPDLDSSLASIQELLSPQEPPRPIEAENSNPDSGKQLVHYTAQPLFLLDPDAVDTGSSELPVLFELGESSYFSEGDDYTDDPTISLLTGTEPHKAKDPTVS

BJ [4] = test: cells; format: functional, cell-based; conditions: Homo sapiens
BJ [5] = test: BJ-TERT-LT-ST fibroblast viability loss – cell-based, RAS-independent, luminescence, dose response (AID 1935); format: functional; conditions: Homo sapiens;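 note: BJ fibroblasts immortalized with TERT plus LT and ST oncogenes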
[6] = DRD fibroblast viability loss – cell-based, non-viral oncogenic, luminescence, dose response (AID 1934); format: functional; conditions: Homo sapiens
[7] = HEK-293T cell viability reduction – luminescence, B-cell screen hits, cytotoxicity control for BCR NF-kB inhibitor project, dose response (AID 489021); format: functional, cell-based;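 note: HEK-293T cells carrying an NF-kB luciferase reporter; cells exposed to compound for about 14 hours before viability readout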
BJ [8] = test: growth inhibition of engineered Ras-driven BJ cells – cell-based, alamar blue fluorescence, cherrypicked samples, dose response (AID 2631); format: functional; conditions: Homo sapiens;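 note: confirmatory dose-response assay in RAS-dependent BJ fibroblasts engineered with TERT, LT and ST, with cytotoxicity read by fluorescence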
Paired box protein Pax-8 = Paired box protein Pax-8 (Homo sapiens, UniProt Q06710); test: PAX8 transcriptional activity inhibition in RMG-I – RMG-I cells, luciferase, cherry-pick, dose response (AID 687027); format: functional, cell-based;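 note: luciferase reporter driven by Pax8 target thyroperoxidase promoter measured by SteadyGlo luminescence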
Chain of Paired box protein Pax-8 (Q06710 whole entry): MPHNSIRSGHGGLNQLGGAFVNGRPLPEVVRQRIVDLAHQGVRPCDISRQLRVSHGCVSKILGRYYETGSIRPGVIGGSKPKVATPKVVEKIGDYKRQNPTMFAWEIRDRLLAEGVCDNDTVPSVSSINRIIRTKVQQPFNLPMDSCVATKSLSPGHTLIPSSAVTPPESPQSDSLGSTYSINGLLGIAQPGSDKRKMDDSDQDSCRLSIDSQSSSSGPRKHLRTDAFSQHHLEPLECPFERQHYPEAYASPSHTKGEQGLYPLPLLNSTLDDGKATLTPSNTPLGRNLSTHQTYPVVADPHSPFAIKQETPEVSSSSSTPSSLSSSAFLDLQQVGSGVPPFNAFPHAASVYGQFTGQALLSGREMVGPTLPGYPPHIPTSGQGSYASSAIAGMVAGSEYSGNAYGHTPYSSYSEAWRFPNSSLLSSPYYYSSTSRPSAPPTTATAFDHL

[9] = general cell-killing toxicity readout – plate reader, dry powder samples, cytotoxicity control for PAX8 inhibitor project, dose response (AID 743021); format: functional, cell-based
[10] = target: Voltage-dependent T-type calcium channel subunit alpha-1H (Homo sapiens, UniProt O95180); format: functional;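 note: channel activity triggered by adding a high calcium stimulation buffer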
Chain of Voltage-dependent T-type calcium channel subunit alpha-1H (O95180 whole entry): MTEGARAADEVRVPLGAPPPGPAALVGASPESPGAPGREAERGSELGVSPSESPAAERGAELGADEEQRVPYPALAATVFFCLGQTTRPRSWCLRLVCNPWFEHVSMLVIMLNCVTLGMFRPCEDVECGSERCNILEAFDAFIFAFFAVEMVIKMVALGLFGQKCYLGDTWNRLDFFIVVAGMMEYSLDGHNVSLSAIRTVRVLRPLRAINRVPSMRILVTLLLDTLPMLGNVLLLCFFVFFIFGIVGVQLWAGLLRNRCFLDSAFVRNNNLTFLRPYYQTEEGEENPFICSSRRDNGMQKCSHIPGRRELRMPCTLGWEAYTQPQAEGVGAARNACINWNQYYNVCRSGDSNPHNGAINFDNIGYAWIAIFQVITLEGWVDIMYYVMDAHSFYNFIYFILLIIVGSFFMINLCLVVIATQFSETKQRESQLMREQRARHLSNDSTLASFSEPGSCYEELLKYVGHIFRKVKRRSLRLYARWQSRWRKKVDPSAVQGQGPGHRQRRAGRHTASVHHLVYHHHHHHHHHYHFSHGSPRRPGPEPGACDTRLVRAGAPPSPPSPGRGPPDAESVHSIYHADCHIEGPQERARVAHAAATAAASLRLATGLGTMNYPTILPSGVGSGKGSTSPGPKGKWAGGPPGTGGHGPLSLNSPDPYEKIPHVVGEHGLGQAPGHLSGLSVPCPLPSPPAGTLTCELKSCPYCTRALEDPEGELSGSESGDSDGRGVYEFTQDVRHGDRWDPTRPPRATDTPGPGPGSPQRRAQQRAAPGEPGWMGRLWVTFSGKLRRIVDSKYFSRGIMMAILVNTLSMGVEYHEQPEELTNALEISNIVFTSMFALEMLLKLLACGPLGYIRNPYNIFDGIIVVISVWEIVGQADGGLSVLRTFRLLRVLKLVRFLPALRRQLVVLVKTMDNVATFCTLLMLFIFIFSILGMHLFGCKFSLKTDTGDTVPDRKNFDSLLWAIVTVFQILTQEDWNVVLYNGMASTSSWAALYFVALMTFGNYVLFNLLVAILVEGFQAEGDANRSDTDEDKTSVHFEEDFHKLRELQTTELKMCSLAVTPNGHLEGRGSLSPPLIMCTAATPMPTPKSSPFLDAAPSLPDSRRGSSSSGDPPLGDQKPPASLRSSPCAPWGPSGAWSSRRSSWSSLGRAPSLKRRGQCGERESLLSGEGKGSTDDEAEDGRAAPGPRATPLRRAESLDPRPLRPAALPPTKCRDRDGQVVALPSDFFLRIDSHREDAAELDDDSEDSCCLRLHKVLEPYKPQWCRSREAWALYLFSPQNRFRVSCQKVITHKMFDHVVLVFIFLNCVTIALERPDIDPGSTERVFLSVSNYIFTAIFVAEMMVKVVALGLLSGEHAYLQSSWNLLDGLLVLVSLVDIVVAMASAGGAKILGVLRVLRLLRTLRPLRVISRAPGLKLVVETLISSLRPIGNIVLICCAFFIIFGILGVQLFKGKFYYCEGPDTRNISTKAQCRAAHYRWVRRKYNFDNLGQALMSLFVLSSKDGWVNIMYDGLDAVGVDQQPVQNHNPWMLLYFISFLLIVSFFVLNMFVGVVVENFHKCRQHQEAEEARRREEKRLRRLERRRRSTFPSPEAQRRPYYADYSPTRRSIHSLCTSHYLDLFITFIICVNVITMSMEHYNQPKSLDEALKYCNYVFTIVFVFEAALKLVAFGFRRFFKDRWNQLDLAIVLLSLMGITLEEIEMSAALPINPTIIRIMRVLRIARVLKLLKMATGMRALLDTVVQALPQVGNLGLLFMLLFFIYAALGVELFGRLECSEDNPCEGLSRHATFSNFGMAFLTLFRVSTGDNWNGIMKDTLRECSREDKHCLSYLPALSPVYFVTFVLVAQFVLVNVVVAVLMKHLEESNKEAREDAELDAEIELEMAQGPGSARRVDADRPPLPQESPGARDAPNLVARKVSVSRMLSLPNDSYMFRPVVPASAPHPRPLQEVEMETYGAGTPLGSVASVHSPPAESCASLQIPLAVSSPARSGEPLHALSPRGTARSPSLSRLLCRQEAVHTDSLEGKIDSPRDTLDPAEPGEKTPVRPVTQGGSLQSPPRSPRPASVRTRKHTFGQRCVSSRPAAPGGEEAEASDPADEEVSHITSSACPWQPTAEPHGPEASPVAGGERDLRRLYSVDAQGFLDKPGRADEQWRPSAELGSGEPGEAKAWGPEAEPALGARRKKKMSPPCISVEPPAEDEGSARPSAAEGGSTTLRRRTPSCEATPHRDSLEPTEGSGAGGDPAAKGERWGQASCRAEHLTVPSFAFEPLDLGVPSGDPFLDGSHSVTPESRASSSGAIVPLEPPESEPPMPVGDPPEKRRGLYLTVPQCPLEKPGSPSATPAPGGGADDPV

[11] = target: T2, Acyl-homoserine lactone acylase PvdQ (Pseudomonas aeruginosa (strain LESB58), UniProt Q9I194); test: PvdQ acylase enzyme activity blockers – biochemical, fluorescence, plate reader and imaging, cherry-picks, dose response (AID 493231)
T2 sequence (Q9I194 whole entry): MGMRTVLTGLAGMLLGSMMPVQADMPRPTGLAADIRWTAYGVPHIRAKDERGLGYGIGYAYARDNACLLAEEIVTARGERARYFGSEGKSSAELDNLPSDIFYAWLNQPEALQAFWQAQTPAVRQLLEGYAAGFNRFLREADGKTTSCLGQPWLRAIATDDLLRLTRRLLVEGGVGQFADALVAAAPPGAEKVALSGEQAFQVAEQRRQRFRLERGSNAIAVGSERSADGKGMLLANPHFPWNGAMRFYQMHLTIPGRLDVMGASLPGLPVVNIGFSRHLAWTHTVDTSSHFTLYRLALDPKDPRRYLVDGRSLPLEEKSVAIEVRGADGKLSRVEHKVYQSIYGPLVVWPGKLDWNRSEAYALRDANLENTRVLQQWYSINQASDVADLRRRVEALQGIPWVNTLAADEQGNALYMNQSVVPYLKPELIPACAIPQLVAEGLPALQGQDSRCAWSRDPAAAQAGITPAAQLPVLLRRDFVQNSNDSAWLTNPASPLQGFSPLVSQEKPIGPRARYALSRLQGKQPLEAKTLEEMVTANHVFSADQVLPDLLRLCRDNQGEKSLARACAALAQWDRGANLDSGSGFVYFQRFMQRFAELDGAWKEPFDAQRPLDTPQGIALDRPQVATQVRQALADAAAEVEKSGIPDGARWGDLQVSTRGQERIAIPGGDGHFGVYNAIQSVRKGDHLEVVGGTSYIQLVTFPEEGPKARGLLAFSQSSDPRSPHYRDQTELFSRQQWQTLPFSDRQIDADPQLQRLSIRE

Estrogen receptor = target: T3, Estrogen receptor (Homo sapiens, UniProt P03372);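 note: potency for inhibiting coactivator peptide recruitment to the receptor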
T3 sequence (P03372 whole entry): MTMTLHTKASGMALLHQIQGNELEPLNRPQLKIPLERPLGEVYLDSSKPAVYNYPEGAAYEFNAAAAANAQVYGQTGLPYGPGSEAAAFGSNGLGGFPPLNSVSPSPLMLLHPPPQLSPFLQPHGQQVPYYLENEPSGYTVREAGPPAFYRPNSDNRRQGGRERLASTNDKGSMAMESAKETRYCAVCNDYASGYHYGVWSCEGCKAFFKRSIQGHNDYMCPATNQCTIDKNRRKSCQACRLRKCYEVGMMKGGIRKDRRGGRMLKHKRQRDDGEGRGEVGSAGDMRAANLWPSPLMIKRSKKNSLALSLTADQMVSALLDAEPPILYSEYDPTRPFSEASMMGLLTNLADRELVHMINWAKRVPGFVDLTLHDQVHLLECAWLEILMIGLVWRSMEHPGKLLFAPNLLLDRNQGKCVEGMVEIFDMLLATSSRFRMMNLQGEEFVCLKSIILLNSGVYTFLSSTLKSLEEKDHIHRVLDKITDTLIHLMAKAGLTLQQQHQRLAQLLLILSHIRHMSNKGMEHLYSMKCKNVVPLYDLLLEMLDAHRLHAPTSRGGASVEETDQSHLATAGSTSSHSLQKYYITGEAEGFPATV

[12] = blockers of HIV-1 envelope-mediated cell-cell fusion – cherry-pick, dose response (AID 652057); format: functional, cell-based
[13] = blockers of HIV-1 ZM109 envelope-driven cell-cell fusion – HeLa effector, CEM target cells, luciferase, cherry-pick, dose response (AID 652058); format: functional, cell-based;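 note: luciferase signal from HIV-1 Env mediated cell-cell fusion of effector and target cells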
[14] = off-target signal loss in HeLa-CEM21 co-culture – HeLa F-luc CTL cells, cherry-picked, counter-screen for HIV-1 Env fusion inhibitor project, dose response (AID 652040); format: functional, cell-based;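 note: potency for signal decrease marking cytotoxic or nonspecific inhibition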
[15] = HIV-1 AD8 envelope cell-cell fusion blockers – cherry-pick, dose response (AID 652062); format: functional, cell-based;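 note: luciferase signal from cell-cell fusion driven by HIV-1 clade B AD8 Env; potency is for inhibitors of fusion seen as a drop in luminescence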
cells [16] = format: functional, cell-based
cells [17] = format: functional, cell-based; remark: listed apart in the source
[18] = target: Glyceraldehyde-3-phosphate dehydrogenase (Homo sapiens, UniProt P04406)
Chain of Glyceraldehyde-3-phosphate dehydrogenase (P04406 whole entry): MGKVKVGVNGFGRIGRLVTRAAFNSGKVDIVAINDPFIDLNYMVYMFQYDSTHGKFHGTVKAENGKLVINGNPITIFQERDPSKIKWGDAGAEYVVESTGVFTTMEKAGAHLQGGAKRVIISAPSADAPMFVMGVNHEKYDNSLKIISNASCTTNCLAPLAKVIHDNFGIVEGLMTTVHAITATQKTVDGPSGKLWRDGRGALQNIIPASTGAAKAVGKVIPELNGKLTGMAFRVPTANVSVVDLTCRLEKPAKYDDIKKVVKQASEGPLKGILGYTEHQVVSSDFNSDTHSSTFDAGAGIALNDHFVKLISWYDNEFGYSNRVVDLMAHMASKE

[19] = target: T4, Alkaline phosphatase, tissue-nonspecific isozyme (Homo sapiens, UniProt P05186); test: potency against alkaline phosphatase TNAP – biochemical, luminescent, dose response, SAR follow-up (AID 1056)
T4 sequence (P05186 whole entry): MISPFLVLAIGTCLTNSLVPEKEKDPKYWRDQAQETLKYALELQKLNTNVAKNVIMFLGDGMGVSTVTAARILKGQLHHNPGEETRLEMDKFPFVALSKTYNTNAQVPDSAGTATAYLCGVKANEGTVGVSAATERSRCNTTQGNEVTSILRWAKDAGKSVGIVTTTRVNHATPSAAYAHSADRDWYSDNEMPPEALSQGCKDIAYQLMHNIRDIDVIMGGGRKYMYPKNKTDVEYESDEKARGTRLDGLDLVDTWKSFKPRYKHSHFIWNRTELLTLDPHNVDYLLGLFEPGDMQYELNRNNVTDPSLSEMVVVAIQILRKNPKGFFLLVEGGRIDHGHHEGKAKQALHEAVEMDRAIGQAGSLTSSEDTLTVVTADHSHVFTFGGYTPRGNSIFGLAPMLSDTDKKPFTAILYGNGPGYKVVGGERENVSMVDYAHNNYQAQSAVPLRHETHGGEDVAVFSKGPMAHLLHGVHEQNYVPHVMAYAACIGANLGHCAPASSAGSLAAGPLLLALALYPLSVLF

[20] = target: Luciferin 4-monooxygenase (Photinus pyralis, UniProt P08659); test: Counter Screen for Luciferase-based Assay Positives. [Related pubchem assays: 620, 618, 411 ]
Chain of Luciferin 4-monooxygenase (P08659 whole entry): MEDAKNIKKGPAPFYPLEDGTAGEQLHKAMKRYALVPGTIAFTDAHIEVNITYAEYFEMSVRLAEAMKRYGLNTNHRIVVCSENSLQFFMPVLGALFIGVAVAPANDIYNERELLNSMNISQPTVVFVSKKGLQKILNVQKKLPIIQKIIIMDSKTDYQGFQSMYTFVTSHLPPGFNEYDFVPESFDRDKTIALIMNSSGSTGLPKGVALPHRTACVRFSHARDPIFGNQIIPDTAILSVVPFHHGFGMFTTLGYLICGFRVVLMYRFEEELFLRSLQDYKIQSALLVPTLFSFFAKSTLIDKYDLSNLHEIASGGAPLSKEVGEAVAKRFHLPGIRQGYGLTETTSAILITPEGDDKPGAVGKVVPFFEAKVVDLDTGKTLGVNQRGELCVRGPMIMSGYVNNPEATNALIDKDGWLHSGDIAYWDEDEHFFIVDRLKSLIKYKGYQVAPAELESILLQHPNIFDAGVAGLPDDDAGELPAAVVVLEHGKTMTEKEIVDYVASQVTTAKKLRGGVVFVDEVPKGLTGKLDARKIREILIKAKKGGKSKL

HT-1080 = test: HT1080 cell viability loss – fluorescence readout (AID 620); format: functional, cell-based; conditions: Homo sapiens
HeLa = test: ATP-based viability loss in HeLa cells – cell-based, CellTiter-Glo luminescence, cherry-pick samples, cytotoxicity control for MITF activator project, dose response (AID 540259); format: functional; conditions: Homo sapiens

IC50 [1]: 1.92 µM (active)
Compound: Cc1ccc(CNCc2cc3c(C(C)(C)C)nn(-c4ccccc4)c3[nH]c2=O)cc1

Compound: COC(=O)[C@@H]1Cc2c([nH]c3ccccc23)C(C)(C)N1C(=O)CCl
EC50 (BJ [2]): 2.4 µM (inconclusive)
EC50 [3]: 4.08 µM (active)
EC50 (BJ [4]): 3.16 µM (inconclusive)
EC50 (BJ [5]): > 75 µM (inconclusive)
EC50 [6]: 2.65 µM (inconclusive)
IC50 [7]: > 80 µM (inactive)
EC50 (BJ [8]): 18.1 µM (active)
AC50 (Paired box protein Pax-8): 1.26 µM (active)
AC50 [9]: 3.27 µM (active)

EC50 [10]: 2.54 µM (active)
Compound: CCN(CCCNC(=O)CCc1nc(-c2ccc(C)cc2)no1)c1cccc(C)c1

Compound: CC(C)(C)NC(=O)c1cc(Cl)ccc1[N+](=O)[O-]
AC50 [11]: 11.5 µM (active)

Compound: Cc1ccc(C(C(=O)NC(C)(C)C)N(Cc2cccs2)C(=O)c2csnn2)cc1 (stereo unspecified)
IC50 (Estrogen receptor): > 50 µM (not active)
AC50 [12]: 10.2 µM (active)
AC50 [13]: 17.5 µM (active)
AC50 [14]: 22.6 µM (active)
AC50 [15]: 1.67 µM (active)

Compound: Cc1sc(NC(=O)c2ccco2)c(CN2CCC(C)CC2)c1C
EC50 (cells [16]): > 350 µM (not active)
EC50 (cells [17]): > 350 µM (not active)
EC50 [10]: 7.78 µM (active)

IC50 [18]: > 100 µM (not active)
IC50 [19]: > 100 µM (inactive)
Compound: COc1ccc(Br)cc1S(=O)(=O)Nc1ccc2ncccc2c1

Compound: COc1ccccc1C(C#N)c1cccc(Cl)n1 (stereo unspecified)
AC50 [11]: 0.85 µM (active)

Compound: Cc1ccc(SCc2cn3c(C)csc3n2)cc1
EC50 [20]: < 0.2 µM (active)
EC50 (HT-1080): > 50 µM (not active)
AC50 (HeLa): 54.9 µM (active)
